Results published in PubChem BioAssay AID248 (DTP/NCI, 2004).
Where “and” joins values, the source holds several entries; their conditions need not be identical. Equal entries are not always repeated. Inconclusive results and toxic doses are left out. No stated cut-off is given here; in the data, active means T/C of 150% or more; inactive means T/C below 125%.

System: L1210 leukemia ip in BDF1 mice, survival T/C
Assay: NCI In Vivo Anticancer Drug Screen. Data for tumor model L1210 Leukemia (intraperitoneal) in B6D2F1 (BDF1) mice
Conditions: endpoint: mean survival time, higher = longer survival
Outline: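 Antitumor effect is assessed in tumor-bearing animals. Survival in the compound arm is compared with a vehicle-dosed control arm and expressed as their quotient.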

[1] = dose: 100.0 mg/kg/injection, schedule: Q04DX003 (ip), vehicle: saline with Tween-80
[2] = dose: 200.0 mg/kg/injection, schedule: Q04DX003 (ip), vehicle: saline with Tween-80
[3] = dose: 400.0 mg/kg/injection, schedule: Q04DX003 (ip), vehicle: saline with Tween-80
[4] = dose: 50.0 mg/kg/injection, schedule: Q01DX009 (ip), vehicle: saline with Tween-80
[5] = dose: 100.0 mg/kg/injection, schedule: Q01DX001 (ip), vehicle: carboxymethylcellulose (CMC)
[6] = dose: 100.0 mg/kg/injection, schedule: Q01DX009 (ip), vehicle: saline with Tween-80
[7] = dose: 200.0 mg/kg/injection, schedule: Q01DX001 (ip), vehicle: carboxymethylcellulose (CMC)
[8] = dose: 400.0 mg/kg/injection, schedule: Q01DX001 (ip), vehicle: carboxymethylcellulose (CMC)
[9] = dose: 100.0 mg/kg/injection, schedule: Q01DX009 (ip), vehicle: Klucel (hydroxypropylcellulose) (HPC)
[10] = dose: 200.0 mg/kg/injection, schedule: Q01DX009 (ip), vehicle: Klucel (hydroxypropylcellulose) (HPC)
[11] = dose: 400.0 mg/kg/injection, schedule: Q01DX009 (ip), vehicle: Klucel (hydroxypropylcellulose) (HPC)

Measured: T/C

Cc1cccc(C[As](=O)(O)O)c1
inactive: dose: 12.5 mg/kg/injection, schedule: Q04DX003 (ip), vehicle: Klucel (hydroxypropylcellulose) (HPC) 97 % of control | dose: 25.0 mg/kg/injection, schedule: Q04DX003 (ip), vehicle: Klucel (hydroxypropylcellulose) (HPC) 111 % of control

COC(=O)C(C)C(=O)O (centres undefined)
inactive: dose: 100.0 mg/kg/injection, schedule: Q04DX002 (ip), vehicle: saline 90 % of control | dose: 200.0 mg/kg/injection, schedule: Q04DX002 (ip), vehicle: saline 97 % of control | dose: 400.0 mg/kg/injection, schedule: Q04DX002 (ip), vehicle: saline 90 % of control

CC(C)(C)N1CC(C(=O)c2ccc3ccccc3c2)C1c1ccccc1 (centres undefined)
inactive: [1] 93 % of control | [2] 98 % of control | [3] 88 % of control

N=C(N)c1ccc(OCCCCCCOc2ccc(C(=N)N)cc2)cc1
inactive: dose: 5.0 mg/kg/injection, schedule: Q01DX001 (ip), vehicle: saline 100 % of control | dose: 10.0 mg/kg/injection, schedule: Q01DX001 (ip), vehicle: saline 100 % of control | dose: 20.0 mg/kg/injection, schedule: Q01DX001 (ip), vehicle: saline 103 % of control | dose: 40.0 mg/kg/injection, schedule: Q01DX001 (ip), vehicle: saline 101 % of control | dose: 80.0 mg/kg/injection, schedule: Q01DX001 (ip), vehicle: saline 92 % of control

CC(=O)Nc1nc(C=O)c(CCCCc2ccccc2)c(=O)[nH]1
inactive: dose: 80.0 mg/kg/injection, schedule: Q01DX001 (ip), vehicle: Klucel (hydroxypropylcellulose) (HPC) 102 % of control | dose: 160.0 mg/kg/injection, schedule: Q01DX001 (ip), vehicle: Klucel (hydroxypropylcellulose) (HPC) 107 % of control | dose: 320.0 mg/kg/injection, schedule: Q01DX001 (ip), vehicle: Klucel (hydroxypropylcellulose) (HPC) 107 % of control

OC1CCCCC1[n+]1ccccc1 (centres undefined) (tested in a mixture with another compound)
inactive: dose: 100.0 mg/kg/injection, schedule: Q01DX001 (ip), vehicle: saline 103 % of control | dose: 200.0 mg/kg/injection, schedule: Q01DX001 (ip), vehicle: saline 88 % of control | dose: 400.0 mg/kg/injection, schedule: Q01DX001 (ip), vehicle: saline 101 % of control

Cc1ccc(C2NC(=O)N3C(c4ccc(C)cc4)NC(=O)N23)cc1 (centres undefined)
inactive: dose: 100.0 mg/kg/injection, schedule: Q01DX009 (ip), vehicle: gum acacia 99 % of control | dose: 100.0 mg/kg/injection, schedule: Q04DX003 (ip), vehicle: gum acacia 99 % of control | dose: 200.0 mg/kg/injection, schedule: Q01DX009 (ip), vehicle: gum acacia 102 % of control | dose: 200.0 mg/kg/injection, schedule: Q04DX003 (ip), vehicle: gum acacia 87 % of control | dose: 400.0 mg/kg/injection, schedule: Q01DX009 (ip), vehicle: gum acacia 96 % of control | dose: 400.0 mg/kg/injection, schedule: Q04DX003 (ip), vehicle: gum acacia 92 % of control

N#Cc1ccc(CCCCCCc2ccc(C#N)cc2)cc1
inactive: dose: 25.0 mg/kg/injection, schedule: Q01DX009 (ip), vehicle: saline with Tween-80 95 % of control | dose: 50.0 mg/kg/injection, schedule: Q01DX001 (ip), vehicle: carboxymethylcellulose (CMC) 101 % of control | [4] 95 % of control | [5] 106 % of control | [6] 94 % of control | [7] 110 % of control | [8] 120 % of control

CCCCN1c2ccccc2NP1(=S)c1ccccc1 (centres undefined)
inactive: dose: 100.0 mg/kg/injection, schedule: Q04DX002 (ip), vehicle: DMSO 93 % of control | dose: 200.0 mg/kg/injection, schedule: Q04DX002 (ip), vehicle: DMSO 101 % of control

N#CC(C#N)=NNc1ccc(S(=O)(=O)c2ccc(NN=C(C#N)C#N)cc2)cc1
inactive: [1] 103 % of control | [2] 97 % of control | [3] 97 % of control

Cc1ccc(C(=O)c2cccc([N+](=O)[O-])c2)cc1
inactive: [9] 104 % of control | [10] 103 % of control | [11] 98 % of control

CC12CCC(=O)C=C1CCC1C2CCC2(C)C(C(=O)COC(=O)c3cc([N+](=O)[O-])c(N4CC4)c([N+](=O)[O-])c3)CCC12 (centres undefined)
inactive: dose: 50.0 mg/kg/injection, schedule: Q01DX001 (sc), vehicle: steriod suspending solution 95 % of control | dose: 60.0 mg/kg/injection, schedule: Q01DX015 (ip), vehicle: saline 88 % of control | dose: 90.0 mg/kg/injection, schedule: Q01DX015 (ip), vehicle: saline 86 % of control | dose: 100.0 mg/kg/injection, schedule: Q01DX001 (sc), vehicle: steriod suspending solution 106 % of control | dose: 135.0 mg/kg/injection, schedule: Q01DX015 (ip), vehicle: saline 88 % of control | dose: 200.0 mg/kg/injection, schedule: Q01DX001 (sc), vehicle: steriod suspending solution 97 % of control | dose: 200.0 mg/kg/injection, schedule: Q01DX015 (ip), vehicle: saline 91 % of control | dose: 400.0 mg/kg/injection, schedule: Q01DX001 (sc), vehicle: steriod suspending solution 101 % of control

Cc1ccc(Cl)cc1NC(=O)c1ccccc1Cl
inactive: [9] 100 % of control | dose: 100.0 mg/kg/injection, schedule: Q01DX009 (ip), vehicle: saline 100 % of control | dose: 100.0 mg/kg/injection, schedule: Q04DX003 (ip), vehicle: saline 95 % of control | [10] 94 % of control | dose: 200.0 mg/kg/injection, schedule: Q01DX009 (ip), vehicle: saline 105 % of control | dose: 200.0 mg/kg/injection, schedule: Q04DX003 (ip), vehicle: saline 122 % of control | [11] 87 % of control | dose: 400.0 mg/kg/injection, schedule: Q01DX009 (ip), vehicle: saline 100 % of control | dose: 400.0 mg/kg/injection, schedule: Q04DX003 (ip), vehicle: saline 111 % of control

CCS(=O)(=O)C1C2CCC(O2)C1S(=O)(=O)CC (centres undefined)
inactive: dose: 100.0 mg/kg/injection, schedule: Q04DX002 (ip), vehicle: Klucel (hydroxypropylcellulose) (HPC) 94 % of control | dose: 200.0 mg/kg/injection, schedule: Q04DX002 (ip), vehicle: Klucel (hydroxypropylcellulose) (HPC) 101 % of control | dose: 400.0 mg/kg/injection, schedule: Q04DX002 (ip), vehicle: Klucel (hydroxypropylcellulose) (HPC) 90 % of control

O=C(O)CC1(C(=O)O)CC2C=CC1C2 (centres undefined)
inactive: [5] 97 % of control and 105 % of control | dose: 100.0 mg/kg/injection, schedule: Q04DX002 (ip), vehicle: carboxymethylcellulose (CMC) 97 % of control and 98 % of control | dose: 100.0 mg/kg/injection, schedule: Q04DX003 (ip), vehicle: carboxymethylcellulose (CMC) 95 % of control and 97 % of control | [7] 97 % of control and 91 % of control | dose: 200.0 mg/kg/injection, schedule: Q04DX002 (ip), vehicle: carboxymethylcellulose (CMC) 97 % of control and 90 % of control | dose: 200.0 mg/kg/injection, schedule: Q04DX003 (ip), vehicle: carboxymethylcellulose (CMC) 97 % of control and 87 % of control | [8] 99 % of control and 103 % of control | dose: 400.0 mg/kg/injection, schedule: Q04DX002 (ip), vehicle: carboxymethylcellulose (CMC) 87 % of control and 90 % of control | dose: 400.0 mg/kg/injection, schedule: Q04DX003 (ip), vehicle: carboxymethylcellulose (CMC) 94 % of control and 90 % of control

CCCCNCCC(SS)c1ccc(Cl)cc1 (centres undefined)
inactive: [4] 106 % of control | [6] 92 % of control | [1] 88 % of control | [2] 93 % of control

O=c1cc(C23CC4CC(CC(C4)C2)C3)[nH]c(=S)[nH]1
inactive: dose: 100.0 mg/kg/injection, schedule: Q01DX001 (ip), vehicle: saline with Tween-80 92 % of control | dose: 200.0 mg/kg/injection, schedule: Q01DX001 (ip), vehicle: saline with Tween-80 108 % of control | dose: 400.0 mg/kg/injection, schedule: Q01DX001 (ip), vehicle: saline with Tween-80 94 % of control

N#C/C(=C\C=C\c1ccccc1)C(N)=O
inactive: [4] 102 % of control | [6] 96 % of control | [1] 96 % of control | dose: 200.0 mg/kg/injection, schedule: Q01DX009 (ip), vehicle: saline with Tween-80 101 % of control | [2] 100 % of control

CC(Oc1nc2c(c(=O)n(C)c(=O)n2C)n1C)C1CCCCC1 (centres undefined)
inactive: dose: 50.0 mg/kg/injection, schedule: Q01DX001 (ip), vehicle: other 95 % of control | dose: 100.0 mg/kg/injection, schedule: Q01DX001 (ip), vehicle: other 98 % of control | dose: 200.0 mg/kg/injection, schedule: Q01DX001 (ip), vehicle: other 93 % of control
